Assay results as given in PMC4450297, “Screening Active Compounds from Garcinia Species Native to China Reveals Novel Compounds Targeting the STAT/JAK Signaling Pathway” (BioMed Research International, 2015).

Experiments:
Assay in all cases: Cell panel screen (CellTiter-Glo)
Format in all cases: cell-based, human
HCC1569 = details: Homo sapiens; HCC1569 (Breast), 20 micromolar, 72 hrs; read-out: Percent Inhibition
Procedure, shortened: (§1)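 Steps: seed cells, culture overnight at 37°C; add compound diluted in medium from DMSO stock to 20 μM final; incubate 72 h; add detection reagent for 10 min; read luminescence; compute % inhibition versus vehicle controls.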

HCC1599 = details: Homo sapiens; HCC1599 (Breast), 20 micromolar, 72 hrs; read-out: Percent Inhibition
Procedure, shortened: as §1

T98G = details: Homo sapiens; T98G (Brain), 20 micromolar, 72 hrs; read-out: Percent Inhibition
Procedure, shortened: as §1

NCI-H2405 = details: Homo sapiens; NCI-H2405 (Lung), 20 micromolar, 72 hrs; read-out: Percent Inhibition
Procedure, shortened: as §1

HEC-1-A = details: Homo sapiens; HEC-1-A (Uterus), 20 micromolar, 72 hrs; read-out: Percent Inhibition
Procedure, shortened: as §1

ChaGo-K-1 = details: Homo sapiens; ChaGo-K-1 (Lung), 20 micromolar, 72 hrs; read-out: Percent Inhibition
Procedure, shortened: as §1

NCI-H1623 = details: Homo sapiens; NCI-H1623 (Lung), 20 micromolar, 72 hrs; read-out: Percent Inhibition
Procedure, shortened: as §1

Colo 205 = details: Homo sapiens; Colo 205, 20 micromolar, 72 hrs; read-out: Percent Inhibition
Procedure, shortened: as §1

NCI-H2347 = details: Homo sapiens; NCI-H2347 (Lung), 20 micromolar, 72 hrs; read-out: Percent Inhibition
Procedure, shortened: as §1

BT-474 = details: Homo sapiens; BT-474 (Breast), 20 micromolar, 72 hrs; read-out: Percent Inhibition
Procedure, shortened: as §1

HT-1197 = details: Homo sapiens, HT1197; HT-1197 (Urinary bladder), 20 micromolar, 72 hrs; read-out: Percent Inhibition
Procedure, shortened: as §1

BT-549 = details: Homo sapiens; BT-549 (Breast), 20 micromolar, 72 hrs; read-out: Percent Inhibition
Procedure, shortened: as §1

T47D = details: Homo sapiens; T47D (Breast), 20 micromolar, 72 hrs; read-out: Percent Inhibition
Procedure, shortened: as §1

ZR-75-30 = details: Homo sapiens; ZR-75-30 (Breast), 20 micromolar, 72 hrs; read-out: Percent Inhibition
Procedure, shortened: as §1

TCCSUP = details: Homo sapiens, TCC-SUP; TCCSUP (Urinary bladder), 20 micromolar, 72 hrs; read-out: Percent Inhibition
Procedure, shortened: as §1

MSTO-211-H = details: Homo sapiens; MSTO-211-H (Lung), 20 micromolar, 72 hrs; read-out: Percent Inhibition
Procedure, shortened: as §1

C3A = details: Homo sapiens; C3A (Liver), 20 micromolar, 72 hrs; read-out: Percent Inhibition
Procedure, shortened: as §1

NCI-H28 = details: Homo sapiens; NCI-H28 (Lung), 20 micromolar, 72 hrs; read-out: Percent Inhibition
Procedure, shortened: as §1

J82 = details: Homo sapiens; J82 (Urinary bladder), 20 micromolar, 72 hrs; read-out: Percent Inhibition
Procedure, shortened: as §1

HGC-27 = details: Homo sapiens; HGC-27 (Stomach), 20 micromolar, 72 hrs; read-out: Percent Inhibition
Procedure, shortened: as §1

NCI-H1694 = details: Homo sapiens; NCI-H1694 (Lung), 20 micromolar, 72 hrs; read-out: Percent Inhibition
Procedure, shortened: as §1

HCC1395 = details: Homo sapiens; HCC1395 (Breast), 20 micromolar, 72 hrs; read-out: Percent Inhibition
Procedure, shortened: as §1

C8166 = details: Homo sapiens; C8166 (Leukemia), 20 micromolar, 72 hrs; read-out: Percent Inhibition
Procedure, shortened: as §1

CW-2 = details: Homo sapiens; CW-2 (Colon), 20 micromolar, 72 hrs; read-out: Percent Inhibition
Procedure, shortened: as §1

RL95 = details: Homo sapiens; RL95 (Uterus), 20 micromolar, 72 hrs; read-out: Percent Inhibition
Procedure, shortened: as §1

SW13 = details: Homo sapiens; SW13 (Adrenal gland), 20 micromolar, 72 hrs; read-out: Percent Inhibition
Procedure, shortened: as §1

Bel-7402 = details: Homo sapiens; Bel-7402 (Liver), 20 micromolar, 72 hrs; read-out: Percent Inhibition
Procedure, shortened: as §1

M059J = details: Homo sapiens; M059J (Brain), 20 micromolar, 72 hrs; read-out: Percent Inhibition
Procedure, shortened: as §1

Row | Structure (SMILES) | inhibition at 20 µM (HCC1569) | inhibition at 20 µM (HCC1599) | inhibition at 20 µM (T98G) | inhibition at 20 µM (NCI-H2405) | inhibition at 20 µM (HEC-1-A) | inhibition at 20 µM (ChaGo-K-1) | inhibition at 20 µM (NCI-H1623) | inhibition at 20 µM (Colo 205) | inhibition at 20 µM (NCI-H2347) | inhibition at 20 µM (BT-474) | inhibition at 20 µM (HT-1197) | inhibition at 20 µM (BT-549) | inhibition at 20 µM (T47D) | inhibition at 20 µM (ZR-75-30) | inhibition at 20 µM (TCCSUP) | inhibition at 20 µM (MSTO-211-H) | inhibition at 20 µM (C3A) | inhibition at 20 µM (NCI-H28) | inhibition at 20 µM (J82) | inhibition at 20 µM (HGC-27) | further results
1 | CC(C)=CCC[C@@]1(C)C=Cc2c(O)c3c(c(CCC(C)(C)O)c2O1)O[C@]12C(=C[C@@H]4C[C@H]1C(C)(C)O[C@@]2(C/C=C(/C)C(=O)O)C4=O)C3=O [GB39, 33-hydroxyepigambogic acid] | 100% | 100% | 100% | 100% | 100% | 100% | 100% | 100% | 99% | 100% | 100% | 100% | 100% | 100% | 100% | 100% | 99% | 99% | 100% | 100% | inhibition at 20 µM (NCI-H1694): 100%; inhibition at 20 µM (HCC1395): 100%; inhibition at 20 µM (C8166): 100%; inhibition at 20 µM (CW-2): 100%; inhibition at 20 µM (RL95): 100%; inhibition at 20 µM (SW13): 100%; inhibition at 20 µM (Bel-7402): 100%; inhibition at 20 µM (M059J): 100%
2 | CC(C)=CCC/C(C)=C/Cc1c(O)c(CC=C(C)C)c2c(c1O)C(=O)C1=C[C@@H]3C[C@H]4C(C)(C)O[C@@](C/C=C(\C)C(=O)O)(C3=O)[C@@]14O2 [GB63] | 99% | 99% | 99% | 99% | 99% | 100% | 99% | 99% | 98% | 99% | 99% | 99% | 99% | 99% | 99% | 99% | 99% | 99% | 99% | 99% | inhibition at 20 µM (NCI-H1694): 100%; inhibition at 20 µM (HCC1395): 99%; inhibition at 20 µM (C8166): 100%; inhibition at 20 µM (CW-2): 99%; inhibition at 20 µM (RL95): 99%; inhibition at 20 µM (SW13): 99%; inhibition at 20 µM (Bel-7402): 99%; inhibition at 20 µM (M059J): 99%
3 | CC(C)=CCC[C@@]1(C)C=Cc2c(O)c3c(c(C/C=C(\C)CO)c2O1)O[C@]12C(=C[C@@H]4C[C@H]1C(C)(C)O[C@@]2(C/C=C(/C)C(=O)O)C4=O)C3=O [GB40, 35-hydroxyepigambogic acid] | 99% | 99% | 99% | 99% | 99% | 98% | 99% | 99% | 98% | 99% | 99% | 99% | 99% | 99% | 99% | 98% | 98% | 98% | 99% | 99% | inhibition at 20 µM (NCI-H1694): 99%; inhibition at 20 µM (HCC1395): 98%; inhibition at 20 µM (C8166): 99%; inhibition at 20 µM (CW-2): 99%; inhibition at 20 µM (RL95): 99%; inhibition at 20 µM (SW13): 98%; inhibition at 20 µM (Bel-7402): 99%; inhibition at 20 µM (M059J): 99%
